Results published in the supplement of paper PMC10307832.

Tests used:
Test in all cases: relative viability (nuclei count vs DMSO), 5 days (fraction); higher = more cells survive
IU1-47 + OSI-027 = compound: CC1=CC(=C(N1C2=CC=C(C=C2)Cl)C)C(=O)CN3CCCCC3 [IU1-47] + COc1cccc2cc(-c3nc([C@H]4CC[C@H](C(=O)O)CC4)n4ncnc(N)c34)[nH]c12 [OSI-027] (partner 0.5 µM)
Method in brief: (§1)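 Dosing by pin tool came one day after lung cancer cell lines were seeded in 1536-well plates, using either one drug or a fixed anchor-drug dose plus five library-drug doses (not always all listed) in √10 steps. After 5 days, nuclei were counted on 4× images. Relative viability is treated-well nuclei count divided by vehicle-well nuclei count, and values are medians of duplicate plates.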

IU1-47 + Linsitinib = compound: CC1=CC(=C(N1C2=CC=C(C=C2)Cl)C)C(=O)CN3CCCCC3 [IU1-47] + C[C@]1(O)C[C@@H](c2nc(-c3ccc4ccc(-c5ccccc5)nc4c3)c3c(N)nccn32)C1 [Linsitinib] (partner 1 µM)
Method in brief: as §1

IU1-47 + Phenformin = compound: CC1=CC(=C(N1C2=CC=C(C=C2)Cl)C)C(=O)CN3CCCCC3 [IU1-47] + N=C(N)NC(=N)NCCc1ccccc1 [Phenformin] (partner 250 µM)
Method in brief: as §1

FG-4592 + Luminespib = compound: Cc1nc(C(=O)NCC(=O)O)c(O)c2ccc(Oc3ccccc3)cc12 [FG-4592] + CCNC(=O)c1noc(-c2cc(C(C)C)c(O)cc2O)c1-c1ccc(CN2CCOCC2)cc1 [Luminespib] (partner 0.01 µM)
Method in brief: as §1

Cell Line | relative viability (IU1-47 + OSI-027; first compound 0.08 µM) | relative viability (IU1-47 + OSI-027; first compound 0.253 µM) | relative viability (IU1-47 + OSI-027; first compound 0.8 µM) | relative viability (IU1-47 + OSI-027; first compound 2.53 µM) | relative viability (IU1-47 + OSI-027; first compound 8 µM) | relative viability (IU1-47 + Linsitinib; first compound 0.08 µM) | relative viability (IU1-47 + Linsitinib; first compound 0.253 µM) | relative viability (IU1-47 + Linsitinib; first compound 0.8 µM) | relative viability (IU1-47 + Linsitinib; first compound 2.53 µM) | relative viability (IU1-47 + Linsitinib; first compound 8 µM) | relative viability (IU1-47 + Phenformin; first compound 0.08 µM) | relative viability (IU1-47 + Phenformin; first compound 0.253 µM) | relative viability (IU1-47 + Phenformin; first compound 0.8 µM) | relative viability (IU1-47 + Phenformin; first compound 2.53 µM) | relative viability (IU1-47 + Phenformin; first compound 8 µM) | relative viability (FG-4592 + Luminespib; first compound 0.08 µM) | relative viability (FG-4592 + Luminespib; first compound 0.253 µM) | relative viability (FG-4592 + Luminespib; first compound 0.8 µM) | relative viability (FG-4592 + Luminespib; first compound 2.53 µM) | relative viability (FG-4592 + Luminespib; first compound 8 µM)
HOP-62 | 0.918 | 0.93 | 0.901 | 0.771 | 0.712 | 0.98 | 1.04 | 0.805 | 0.677 | 0.886 | 0.756 | 0.792 | 0.719 | 0.675 | 0.543 | 0.88 | 0.871 | 0.993 | 0.902 | 0.962
CAL-12T | 0.764 | 0.635 | 0.675 | 0.631 | 0.683 | 0.82 | 0.828 | 0.805 | 0.887 | 0.832 | 0.525 | 0.576 | 0.613 | 0.472 | 0.554 | 0.212 | 0.458 | 0.129 | 0.375 | 0.689
NCI-H520 | 0.261 | 0.27 | 0.305 | 0.3 | 0.206 | 0.849 | 1.13 | 0.934 | 0.974 | 0.666 | 0.602 | 0.484 | 0.59 | 0.626 | 0.346 | 0.22 | 0.209 |  | 0.204 | 0.201
NCI-H1755 | 0.759 | 0.876 | 0.777 | 0.729 | 0.686 | 1.03 | 1.03 | 1.06 | 1.05 | 0.962 | 0.684 | 0.665 | 0.698 | 0.613 | 0.662 | 0.417 | 0.295 | 0.331 | 0.492 | 0.517
NCI-H2023 | 0.375 | 0.391 | 0.436 | 0.259 | 0.352 | 0.701 | 0.686 | 0.665 | 0.617 | 0.611 | 0.459 | 0.387 | 0.411 | 0.472 | 0.378 | 0.617 | 0.634 | 0.698 | 0.773 | 0.599
NCI-H2009 | 0.662 | 0.672 | 0.676 | 0.558 | 0.593 | 1.19 | 1.19 | 1.13 | 1.24 | 1.24 | 0.519 | 0.501 | 0.5 | 0.486 | 0.412 | 1.04 | 0.936 | 1.01 | 0.959 | 0.999
